Test results: patent publication US20250268826A1, “IONIZABLE LIPIDOID COMPOSITIONS AND THERAPEUTIC USES THEREOF” (Flagship Pioneering Innovations VII, LLC, priority 2023, published 2025)

Columns and labels:
Assay type in all cases: physicochemical
[1] = Encapsulation efficiency (EE %) by fluorescence based Ribogreen assay
[2] = LNP size and polydispersity index (PDI) by dynamic light scattering (DLS)
[3] = LNP Zeta potential measured using a Zetasizer (Malvern); conditions: for Zeta potential: hEPO mRNA, N:P 6; for Zeta potential (mV): LNP with hEPO mRNA, N:P ratio 6
[4] = Table 1, LNP lipid:DSPC:Cholesterol:DMG-PEG2k 50:10:38.5:1.5 mol %, hEPO mRNA, N:P 6
[5] = Table 1, LNP lipid:DSPC:Cholesterol:DMG-PEG2k 50:10:38.5:1.5 mol %
[6] = Table 10, LNP with hEPO mRNA, Lipid:DSPC:Cholesterol:DMG-PEG2k 50:10:38.5:1.5 mol %, N:P ratio 6, Ribogreen assay
[7] = Table 10, LNP with hEPO mRNA, Lipid:DSPC:Cholesterol:DMG-PEG2k 50:10:38.5:1.5 mol %, N:P ratio 6, DLS
[8] = Table 10, Lipid:DSPC:Cholesterol:DMG-PEG2k 50:10:38.5:1.5 mol %
[9] = Table 9, LNP 50:10:38.5:1.5 mol %, hEPO mRNA, N:P 6
[10] = Table 9, LNP Lipid:DSPC:Cholesterol:DMG-PEG2k 50:10:38.5:1.5 mol %, hEPO mRNA, N:P 6
[11] = Table 9, LNP 50:10:38.5:1.5 mol %
[12] = Table 8, LNP 50:10:38.5:1.5 mol %, hEPO mRNA, N:P 6
[13] = Table 11, LNP with hEPO mRNA, Lipid:DSPC:Cholesterol:DMG-PEG2k 50:10:38.5:1.5 mol % (ALC-0315: 46.3:9.4:42.7:1.6), N:P ratio 6, HEPES/sodium chloride/sucrose buffer, stored at −80C
[14] = Table 11, Lipid:DSPC:Cholesterol:DMG-PEG2k 50:10:38.5:1.5 mol % (ALC-0315: 46.3:9.4:42.7:1.6), HEPES/sodium chloride/sucrose buffer, stored at −80C
[15] = Table 6, LNP 50:10:38.5:1.5 mol %, hEPO mRNA, N:P 6
[16] = Table 6, LNP 60:0:38.5:1.5 mol %, hEPO mRNA, N:P 6
[17] = Table 5, LNP 50:10:38.5:1.5 mol %, hEPO mRNA, N:P 6
[18] = Table 3, LNP 50:10:38.5:1.5 mol %, hEPO mRNA, N:P 6

CCCCCCCCCC(=O)OCCN(CCOC(=O)CCCCCCCCC)C(=O)C(C)N (stereo not shown) [Compound 110]
Encapsulation Efficiency % [1, 4]: 98% | PDI [2, 4]: 0.069 | Size [2, 4]: 57.7 nm | Zeta potential [3, 5]: −4.943 mV

CCCCCCCC/C=C\CCCCCCCC(=O)OCCN(CCOC(=O)C(CCCCCC)CCCCCCCC)C(=O)CCN(CC)CC (stereo not shown) [Compound 917a]
Encapsulation Efficiency % [1, 6]: 43.4% | PDI [2, 7]: 0.124 | Size (nm) [2, 7]: 82.8 nm | Zeta potential (mV) [3, 8]: −5.5 mV

CCCCCCCC(CCCCCCC)C(=O)OCCN(CCOC(=O)C(CCCCCCC)CCCCCCC)C(=O)CN(C)C.Cl [Compound 962]
Encapsulation Efficiency % [1, 9]: 99.6% | PDI [2, 9]: 0.132 | Size [2, 10]: 74.9 nm | Zeta potential [3, 11]: −30.33 mV

CCCCCCCCC(CCCCCC)C(=O)OCCN(CCOC(=O)C(CCCCCC)CCCCCCCC)C(=O)CN(C)CC.Cl (stereo not shown) [Compound 966]
Encapsulation Efficiency % [1, 9]: 97.8% | PDI [2, 9]: 0.076 | Size [2, 10]: 89.5 nm | Zeta potential [3, 11]: −36.65 mV

CCCCCCCCC(CCCCCC)C(=O)OCCN(CCOC(=O)C(CCCCCC)CCCCCCCC)C(=O)CCNC.Cl (stereo not shown) [Compound 904]
Encapsulation Efficiency % [1, 12]: 100% | PDI [2, 12]: 0.189 | Size ([2]; Table 8, LNP Lipid:DSPC:Cholesterol:DMG-PEG2k 50:10:38.5:1.5 mol %, hEPO mRNA, N:P 6): 86.7 nm | Zeta potential ([3]; Table 8, LNP 50:10:38.5:1.5 mol %): −1.6 mV

CCCCCCCCC(CCCCCC)C(=O)OCCN(CCOC(=O)C(CCCCCC)CCCCCCCC)C(=O)CNC.Cl (stereo not shown) [Compound 964]
Encapsulation Efficiency % [1, 9]: 99.3% | PDI [2, 9]: 0.317 | Size [2, 10]: 73.9 nm | Zeta potential [3, 11]: −26.13 mV

CCCCCCCCC(CCCCCC)C(=O)OCCN(CCOC(=O)C(CCCCCC)CCCCCCCC)C(=O)C(C)CCNCCC.Cl (stereo not shown) [Compound 987h]
Encapsulation Efficiency % [1, 13]: 99.4% | PDI [2, 13]: 0.099 | Size (nm) [2, 13]: 69.1 nm | Zeta potential (mV) [3, 14]: 0.0 mV

CCCCCCCCC(CCCCCC)C(=O)OCCN(CCOC(=O)C(CCCCCC)CCCCCCCC)C(=O)CCCN (stereo not shown) [Compound 804]
Encapsulation Efficiency % [1, 15]: 98.3% | Encapsulation Efficiency % [1, 16]: 99.9% | PDI [2, 15]: 0.281 | PDI [2, 16]: 0.147 | Size [2, 16]: 81.1 nm | Size ([2]; Table 6, LNP lipid:DSPC:Cholesterol:DMG-PEG2k 50:10:38.5:1.5 mol %, hEPO mRNA, N:P 6): 96 nm | Zeta potential ([3]; Table 6, LNP 50:10:38.5:1.5 mol %): −1.7 mV | Zeta potential ([3]; Table 6, LNP 60:0:38.5:1.5 mol %): 2.8 mV

CCCCCCCCCCCCC(CC)C(=O)OCCN(CCOC(=O)C(CC)CCCCCCCCCCCC)C(=O)C(C)N (stereo not shown) [Compound 613]
Encapsulation Efficiency % [1, 17]: 99.8% | PDI [2, 17]: 0.236 | Size ([2]; Table 5, LNP Lipid:DSPC:Cholesterol:DMG-PEG2k 50:10:38.5:1.5 mol %, hEPO mRNA, N:P 6): 53.7 nm | Zeta potential ([3]; Table 5, LNP 50:10:38.5:1.5 mol %): −6.511 mV

CCCCCCCC/C=C\CCCCCCCC(=O)OCCN(CCOC(=O)CCCCCCC/C=C\CCCCCCCC)C(=O)C(C)N (stereo not shown) [Compound 107]
Encapsulation Efficiency % [1, 4]: 93% | Encapsulation Efficiency % [1, 18]: 99.9% | Size [2, 4]: 100.4 nm | PDI [2, 18]: 0.016 | Size ([2]; Table 3, LNP lipid:DSPC:Cholesterol:DMG-PEG2k 50:10:38.5:1.5 mol %, hEPO mRNA, N:P 6): 60.6 nm | Zeta potential [3, 5]: 5.484 mV

CCCCCCCCC(CCCCCC)C(=O)OCCN(CCOC(=O)C(CCCCCC)CCCCCCCC)C(=O)C(N)CCCCN (stereo not shown) [Compound 123]
Encapsulation Efficiency % [1, 4]: 97% | PDI [2, 4]: 0.338 | Size [2, 4]: 83.3 nm | Zeta potential [3, 5]: −3.45 mV

CCCCCCCCC(CCCCCC)C(=O)OCCCCCCN(CCCCO)CCCCCCOC(=O)C(CCCCCC)CCCCCCCC (stereo not shown) [ALC-0315, reference compound]
Encapsulation Efficiency % [1, 6]: 83.8% | Encapsulation Efficiency % [1, 13]: 91.0% | PDI [2, 7]: 0.295 | Size (nm) [2, 7]: 61.4 nm | PDI [2, 13]: 0.280 | Size (nm) [2, 13]: 74.7 nm | Zeta potential (mV) [3, 8]: −10.3 mV | Zeta potential (mV) [3, 14]: −7.5 mV
